Measurements from patent US20080089860A1, “Therapeutic compositions and methods useful in treating cancer” (priority 2006, published 2008).

Legend:
[1] = system: Jak2/Stat5 and cellular protein tyrosine phosphorylation in Baf3 cells; experiment: Cellular protein phosphorylation and Western blotting in Baf3 cells; type: cell-based, murine
Procedure: For induction of cellular protein phosphorylation by sodium stibogluconate or pervanadate, Baf3 cells were incubated in 0.1% FCS-RPMI 1640 medium at 37° C. for 16 hours. The cells were then washed twice in RPMI 1640 medium and incubated with sodium stibogluconate or pervanandate (0.1 mM) for various times prior to termination by lysing cells in cold lysis buffer (50 mM Tris, pH 7.4; 150 mM NaCl; 0.2 mM Na3VO4; 20 mm NaF; 1% Nonidet P-40; 2 mM PMSF; 20 µg/ml of Aprotinin and 1 mM of sodium molybdic acid). To determine the effect of sodium stibogluconate or potassium antimonyl tartrate on IL-3-induced Jak/Stat phosphorylation, Baf3 cells were deprived of the growth factor for 16 hours in 0.1% FCS RPMI 1640 medium and then incubated with or without sodium stibogluconate or potassium antimonyl tartrate for 10 minutes. IL-3 was next added to the cell suspension and incubated for various times. The Cells were then harvested and lysed in cold lysis buffer at 4° C. for 45 minutes. Total cell lysates (TCL) were separated in SDS-PAGE gels, blotted onto nitrocellulose membrane (Schleicher & Schuell), probed with specific antibodies and detected using an enhanced chemiluminescence kit (ECL, Amersham, Arlington Heights, Ill.).

NB4 cells [2] = experiment: NB4 cell cycle analysis and Annexin V/propidium iodide assay; type: cell-based, human
Procedure: […] Briefly, the cells were fixed in cold ethanol and incubated for 30 minutes at 4° C. in the dark with a solution of […], 1 mg/ml RNase and 0.1% NP-40. Analysis was performed immediately after staining using the CELLFIT program (Becton Dickinson, Mountain View, Calif.).
] Annexin V staining of exposed membrane phospholipid phosphatidylserine (PS) was done using the Annexin V assay kit (Pharmingen, San Diego, Calif.). Briefly, NB4 cells were cultured in the 10% FCS RPMI 1640 medium in the absence or presence of sodium stibogluconate (250 µg/ml) or ATRA (1 µM) for 3 days. Cells were then washed in PBS twice and stained in binding buffer (10 mM Hepes, pH 7.4; 140 mM NaCl; 2.5 mM CaCl2) containing Annexin V-FITC and propidium iodide for 15 min. The reaction was stopped by adding 10 volumes of binding buffer and analyzed by FACS (Becton Dickinson Facsvantage).

NB4 cells [3] = experiment: NB4 cell proliferation, MTT assay; type: cell-based, human; conditions: 12.5-400 μg/ml
Procedure: The NB4 cell line (Lanotte et al., Blood 77, 1080 (1991)) was a gift from Dr. Dan Lindner of the Cleveland Clinic Foundation. […] and U937 cell lines were purchased from American Type Culture Collection (Rockville, Md.). These human […] cell lines were maintained in RPMI 1640 medium supplemented with 10% fetal calf serum (FCS). For cell proliferation assays, cells were cultured at 37° C. in 10% FCS medium containing various amounts of sodium stibogluconate for 6 days. The cell numbers in the cultures were determined by an MTT assay as described previously in Mosmann, J. Immunol. Methods 65, 55 (1983).

O.O.O.O.O.O.O.O.O.O=C([O-])[C@@H]1[O][Sb]2([O-])([O][Sb]34([OH])[O][C@H]([C@H](O)CO)[C@H]([O]3)[C@H](C(=O)[O-])[O]4)[O][C@H]([C@H](O)CO)[C@@H]1[O]2.[Na+].[Na+].[Na+] [sodium stibogluconate]
induced cellular protein tyrosine phosphorylation ([1]; Baf3 cells, in comparison with pervanadate (0.1 mM)): modest and transient
phosphotyrosine levels of Jak2 and Stat5 relative to cells without drug treatment ([1]; IL-3-stimulated Baf3 cells, densitometry): about twice
Jak2/Stat5 tyrosine phosphorylation by drug alone ([1]; no IL-3, 37 °C for 16 hours): failed to induce
Annexin V staining of NB4 cells (NB4 cells [2]; 250 μg/ml for 6 days): stained positive by Annexin V
cell cycle distribution of NB4 cells (NB4 cells [2]; 3 days, sodium stibogluconate 250 μg/ml, ATRA 1 μM): significant increase of cells at S phase
proliferation of NB4 cells (NB4 cells [3]): markedly inhibited
